Laboratory results: patent US5856503A, “Aminoalkyl-substituted benzo-heterocyclic compounds” (Hoffmann-La Roche Inc., priority 1995, dated 1999)
In brackets after ≈: the same amount, converted by molar mass. Like-named read-outs stand apart in the source and are kept apart here.

What was measured:
[1] = test system: Aspergillus fumigatus; assay: Antifungal activity in vitro, A. fumigatus (microdilution); type: cell-based; conditions: 48 hours, 27° C., read-out: IC50 for A. fumigatus after 48 hours (growth inhibition)
Procedure: (§1) Antifungal activity in vitro The compounds were tested for antifungal activity against Candida albicans, Cryptococcus neoformans and Aspergillus fumigatus using a microdilution method on microtitre plates (96 wells per plate). Yeast supplemented with 1% glucose and 0.25% di-potassium phosphate was used for the three fungal strains. The fungal cells were inoculated at 3×10^4 CFU (Colony Forming Unit) in […] of medium per well. The medium contained increasing concentrations of test substance. After incubation at 27° C. for 24 or 48 hours the turbidity in each well was measured by a microtitre plate reader. The growth inhibition was calculated in comparison to (without test substance). The IC50 value given in the following Table is the concentration of test substance at which the growth is inhibited by 50%.

[2] = test system: Cryptococcus neoformans; assay: Antifungal activity in vitro, C. neoformans (microdilution); type: cell-based; conditions: 48 hours, 27° C., read-out: IC50 for C. neoformans after 48 hours (growth inhibition)
Procedure: as §1

[3] = test system: Candida albicans; assay: Antifungal activity in vitro, C. albicans (microdilution); type: cell-based; conditions: 27° C.
Procedure: as §1

[4] = molecular target: T1, human liver microsomal 2,3-oxidosqualene-lanosterol cyclase (OSC) (Homo sapiens, UniProt P48449); assay: Inhibition of human liver microsomal 2,3-oxidosqualene-lanosterol cyclase (OSC); type: biochemical; conditions: for inhibition at 0.1 µM: 100 nM test substance, 1 hour at 37° C., against controls; for IC50: pH 7.4, 1 hour at 37° C., read-out: IC50 (OSC, conversion of MOS into lanosterol)
T1 construct: Liver microsomes from a healthy volunteer were prepared in sodium phosphate buffer (pH 7.4); from tissue; host or cells: liver microsomes from a healthy human volunteer
T1 sequence (P48449 1-732): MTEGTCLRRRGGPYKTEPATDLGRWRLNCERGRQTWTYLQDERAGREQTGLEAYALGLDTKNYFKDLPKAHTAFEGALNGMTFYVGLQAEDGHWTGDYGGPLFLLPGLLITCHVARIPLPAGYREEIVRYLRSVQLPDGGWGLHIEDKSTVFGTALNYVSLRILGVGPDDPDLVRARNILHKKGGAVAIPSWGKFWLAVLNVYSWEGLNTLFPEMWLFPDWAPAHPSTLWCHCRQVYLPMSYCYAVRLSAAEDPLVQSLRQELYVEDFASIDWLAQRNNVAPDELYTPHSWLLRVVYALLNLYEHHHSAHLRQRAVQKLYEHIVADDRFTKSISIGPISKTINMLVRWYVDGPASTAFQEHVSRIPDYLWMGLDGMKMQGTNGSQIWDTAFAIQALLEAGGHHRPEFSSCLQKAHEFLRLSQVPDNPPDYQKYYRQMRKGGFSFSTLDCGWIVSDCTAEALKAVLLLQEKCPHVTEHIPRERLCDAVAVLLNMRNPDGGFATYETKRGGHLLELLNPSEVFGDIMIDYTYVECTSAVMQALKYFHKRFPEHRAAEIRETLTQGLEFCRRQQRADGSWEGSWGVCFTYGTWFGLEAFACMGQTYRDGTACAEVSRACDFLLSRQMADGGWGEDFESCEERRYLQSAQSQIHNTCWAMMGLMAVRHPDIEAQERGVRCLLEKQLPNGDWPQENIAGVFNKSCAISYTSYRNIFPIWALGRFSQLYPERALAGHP
Procedure: Inhibition of human liver microsomal 2,3-oxidosqualene-lanosterol cyclase (OSC)
Liver microsomes from a healthy volunteer were prepared in sodium phosphate buffer (pH 7.4). The OSC activity was measured in the same buffer which also contained 1 mM EDTA and 1 mM dithiothreitol. The microsomes were diluted to 0.8 mg/ml protein in cold phosphate buffer. Dry [^14 C]R,S-monooxidosqualene (MOS; 12.8 μCi/mmol) was diluted to 20 nCi/μl with ethanol and mixed with phosphate buffer-1% BSA (Bovine Serum Albumin). A stock solution of 1 mM test substance in DMSO was diluted to the desired concentration with phosphate buffer-1% BSA. 40 μl of microsomes were mixed with 20 μl of the solution of the test substance and the reaction was subsequently started with 20 μl of the [^14 C]R,S-MOS solution. The final conditions were: 0.4 mg/ml of microsomal proteins and […] of [^14 C]R,S-MOS in phosphate buffer, pH 7.4, containing 0.5% albumin, DMSO <0.1% and ethanol <2%, in a total volume of 80 μl.
After 1 hour at 37° C. the reaction was stopped by the addition of 0.6 ml of 10% KOH-methanol, 0.7 ml of water and 0.1 ml of hexane:ether (1:1, v/v) which contained 25 μg of non-radioactive MOS and 25 μg of lanosterol as the carrier. After shaking 1 ml of hexane:ether (1:1, v/v) was added to each test tube, these were again shaken and then centrifuged. The upper phase was transferred into a glass test tube, the lower phase was again extracted with hexane:ether and combined with the first extract. The entire extract was evaporated to dryness with nitrogen, the residue was suspended in 50 μl of hexane:ether and applied to a silica gel plate. Chromatographic separation was effected in hexane:ether (1:1, v/v) as the eluent. […] After drying radioactive MOS and lanosterol were observed on the silica gel plate. The ratio of MOS to lanosterol was determined from the radioactive bands in order to determine the OSC inhibition.
The test was carried out on the one hand with a constant test substance concentration of 100 nM and the percentage OSC inhibition against controls was calculated. In addition, the test was carried out with different test substance concentrations and subsequently the IC50 value was calculated, i.e. the concentration required to reduce the conversion of MOS into lanosterol to 50% of the control value.

[5] = Cholesterol lowering in fat-fed hamsters; type: in vivo, Male golden hamsters; conditions: 200 μmol (about 70-120 mg/kg/day) in diet, 10 days
Procedure: Cholesterol lowering in fat-fed hamsters
Male golden hamsters kept individually were pre-treated for 7 days with a diet containing grated coconut (40 cal. % fat). The animals were then divided into groups each comprising 5 animals. During the treatment the animals were maintained on the same diet. Each test substance was firstly homogenized in 9 ml of water and subsequently mixed with the milled diet. The controls received only feed converted into a paste with water. The animals were treated for 10 days with a test substance dosage of 200 μmol (about 70-120 mg/kg/day). Blood samples (200 μl) were removed via the jugular vein under light anaesthesia on the last day of the pretreatment and one day after the last administration of test substance. The plasma cholesterol concentration was determined using a colorimetric enzyme method. The plasma lipoproteins were separated by exclusion chromatography (Hennes et al., Science Tools, 36, 1992, 10-12). The total cholesterol was determined in each fraction using a fluorometric enzyme method (Gamble et al., J. Lipid Res., 19, 1978, 1068-1071) in order to calculate the amount of cholesterol in the LDL and HDL fractions. The activity on plasma cholesterol and LDL and HDL cholesterol, expressed in percent of the control animals, for the products of Examples 8a and 12 is reproduced in the following Table: […]

[6] = 24 hrs., read-out: IC50 for C. albicans after 24 hrs. (growth inhibition)
[7] = 48 hrs., read-out: IC50 for C. albicans after 48 hrs. (growth inhibition)

SMILES	inhibition at 0.1 µM [4] [%]	IC50 [4] [nM]	other results
C=CCN(C)CCCCCCOc1ccc2c(c1)CCNC2c1ccc(Br)cc1 (racemic) [Example 21, (RS)-allyl-[6-[1-(4-bromo-phenyl)-1,2,3,4-tetrahydro-isoquinolin-6-yloxy]-hexyl]-methyl-amine]			IC50 [1]: 4.1 µg/mL (≈ 8.96 µM); IC50 [2]: < 0.32 µg/mL; IC50 [3, 6]: < 0.32 µg/mL; IC50 [3, 7]: 1.3 µg/mL (≈ 2.84 µM)
C=CCN(C)CCCCCCOc1ccc2c(c1)N=CNC2c1ccc(Br)cc1 (racemic) [Example 34, (RS)-Allyl-[6-[4-(4-bromo-phenyl)-3,4-dihydro-quinazolin-7-yloxy]-hexyl]-methyl-amine]			IC50 [1]: 3.9 µg/mL (≈ 8.54 µM); IC50 [2]: < 0.32 µg/mL; IC50 [3, 6]: 1.6 µg/mL (≈ 3.51 µM); IC50 [3, 7]: 6.5 µg/mL (≈ 14.2 µM)
CN(C[C@@H]1C[C@H]1COc1ccc2c(-c3ccc(Br)cc3)nccc2c1)C1CC1 (racemic) [Example 39, (1RS,2RS)-[2-[1-(4-Bromo-phenyl)-isoquinolin-6-yloxymethyl]-cyclopropylmethyl]-cyclopropyl-methyl-amine]	83	3.6	
C=CCN(C)C/C=C/COc1ccc2c(-c3ccc(Br)cc3)nsc2c1 [Example 2a, (E)-allyl-[4-[3-(4-bromo-phenyl)-benzo[d]isothiazol-6-yloxy]-but-2-enyl]-methyl-amine]	92	1.65	
CSCCN(C)CCCCCCOc1ccc2c(-c3ccc(Br)cc3)nsc2c1 [Example 2b]	32		
C=CCN(C)CCCCCCOc1ccc2c(-c3ccc(Br)cc3)csc2c1 [Example 3, allyl-[6-[3-(4-bromo-phenyl)-benzo[b]thiophen-6-yloxy]-hexyl]methyl-amine]	99	4	
C=CCN(C)C/C=C/COc1ccc2c(CCC=C(C)C)nsc2c1 [Example 6, (E)-allyl-methyl-[4-[3-(4-methyl-pent-3-enyl)-benzo[d]isothiazol-6-yloxy]-but-2-enyl]-amine]	62		
C=CCN(C)C/C=C/COc1ccc2c(-c3ccc(Br)cc3)noc2c1 [Example 12]	61		
C=CCN(C)CCCCCCOc1ccc(-c2noc3cc(Br)ccc23)cc1 [Example 14]	30		
C=CCN(C)CCCCCCOc1ccc2c(-c3ccc(Br)cc3)nccc2c1 [Example 23, allyl-[6-[1-(4-bromo-phenyl)-isoquinolin-6-yloxy]-hexyl]-methyl-amine]	99		HDL cholesterol (plasma, percent of control animals) [5]: -2%; LDL cholesterol (plasma, percent of control animals) [5]: -23%; Total cholesterol (plasma, percent of control animals) [5]: -15%
C=CCN(C)C/C=C/COc1ccc2c(c1)CCN=C2c1ccc(Br)cc1 [Example 26, (E)-allyl-[4-[1-(4-bromo-phenyl)-3,4-dihydro-isoquinolin-6-yloxy]-but-2-enyl]-methyl-amine]	95	2.1	
C=CCN(C)C/C=C/COc1ccc2c(c1)CON=C2c1ccc(Br)cc1 [Example 27, (E)-allyl-[4-[4-(4-bromo-phenyl)-1H-benzo[d][1,2]oxazin-7-yloxy]-but-2-enyl]-methyl-amine]	96	3.7	
C=CCN(C)CCCCCCOc1ccc2c(-c3ccc(Br)cc3)nncc2c1 [Example 29, allyl-[6-[1-(4-bromo-phenyl)-phthalazin-6-yloxy]-hexyl]-methyl-amine]	85		
C=CCN(C)CCCCCCOc1ccc2c(-c3ccc(Br)cc3)nncc2c1 [Example 29a, allyl-[6-[1-(4-bromo-phenyl)-phthalazin-6-yloxy]-hexyl]-methyl-amine]			IC50 [1]: 0.37 µg/mL (≈ 0.814 µM); IC50 [2]: < 0.32 µg/mL; IC50 [3, 6]: < 0.32 µg/mL; IC50 [3, 7]: 1.1 µg/mL (≈ 2.42 µM)
C=CCN(C)C/C=C/COc1cc2c(cc1F)c(-c1ccc(Br)cc1)nn2C [Example 31, (E)-allyl-[4-[3-(4-bromo-phenyl)-5-fluoro-1-methyl-1H-indazol-6-yloxy]-but-2-enyl]-methyl-amine]	79	29	
C=CCN(C)CCCCCCOc1ccc2c(CCC=C(C)C)nn(C)c2c1 [Example 32e, allyl-methyl-[6-[1-methyl-3-(4-methyl-pent-3-enyl)-1H-indazol-6-yloxy]-hexyl]amine]	75		
C=CCN(C)C/C=C/COc1ccc2c(CCC=C(C)C)nn(C)c2c1 [Example 32h, (E)-allyl-methyl-[4-[1-methyl-3-(4-methyl-pent-3-enyl)-1H-indazol-6-yloxy]-but-2-enyl]-amine]	54		
CN(CCCCCCOc1ccc2c(-c3ccc(Br)cc3)nn(C)c2c1)C1CC1 [Example 32i, [6-[3-(4-bromo-phenyl)-1-methyl-1H-indazol-6-yloxy]-hexyl]-cyclopropyl-methyl-amine]	55		
C=CCN(C)CCCCCCOc1ccc2c(-c3ccc(Br)cc3)n[nH]c2c1 [Example 32k, allyl-[6-[3-(4-bromo-phenyl)-1H-indazol-6-yloxy]-hexyl]-methyl-amine]	62		
C=CCN(C)CCCCCCOc1ccc2c(-c3ccc(Br)cc3)ncnc2c1 [Example 33, Allyl-[6-[4-(4-bromo-phenyl)-quinazolin-7-yloxy]-hexyl]-methyl-amine]	94	12.3	
C=CCN(C)CCCCCCOc1ccc2c(c1)OCC=C2c1ccc(Br)cc1 [Example 37, Allyl-[6-[4-(4-bromo-phenyl)-2H-chromen-7-yloxy]-hexyl]-methyl-amine]	77	24	
C=CCN(C)CCCCCCOc1ccc2c(-c3ccc(Br)cc3)ccnc2c1 [Example 38, Allyl-[6-[4-(4-bromo-phenyl)-quinolin-7-yloxy]-hexyl]-methyl-amine]	84		
